Experimental data from ChEMBL document CHEMBL1156829 (Proc Natl Acad Sci U S A, 2008).

What was measured:
[1] = NOVARTIS: Cytotoxicity against human hepatocellular carcinoma cell line (Huh7); assay type: toxicity, cell-based, Huh-7; settings: Huh7 cells (hepatocellular carcinoma cell line)
Plasmodium falciparum [2] = assay: NOVARTIS: Inhibition of Plasmodium falciparum 3D7 (drug-susceptible) proliferation in erythrocyte-based infection assay; assay type: functional, organism-based; settings: Plasmodium falciparum, 3D7
Plasmodium falciparum [3] = assay: NOVARTIS: Inhibition of Plasmodium falciparum W2 (drug-resistant) proliferation in erythrocyte-based infection assay; assay type: functional, organism-based; settings: Plasmodium falciparum, W2; read-out: EC50

Row | Structure (SMILES) | CC50 [1] [µM] | EC50 (Plasmodium falciparum [2]) [µM] | EC50 (Plasmodium falciparum [3]) [µM]
1 | CCOC(=O)c1ccc(N(C(=O)Cc2c[nH]c3ccccc23)C(C(=O)NC2CCCCC2)c2cccc(OC)c2OC)cc1 (stereo not drawn) | > 100 | 0.0542 | 0.104
2 | COc1cccc(NC(=O)Cn2c(C)c(C#N)c3ccccc32)c1 | > 100 | 0.0796 | 0.104
3 | CC(C)(C)c1ccc(O)c(CNC2CCCCC2)c1 | 60.1 | 0.251 | 0.0678
4 | COC1=CC(C)=C[C@@H](C)[C@@H](O)[C@H](C)CC(C)=CC=C[C@H](OC)[C@@H](C(C)C(O)[C@H](C)[C@@]2(O)C[C@@H](O)[C@H](C)[C@@H](C(C)C)O2)OC1=O (stereo partly drawn) | > 10 | 1.49 | 0.0113
5 | COc1cccc(CN2CCN(C(c3ccccc3)c3ccccc3)CC2)c1O | 45.2 | 0.34 | 0.0504
6 | CCN(CC)CCCC(C)N=c1cc(C=Cc2ccc([N+](=O)[O-])cc2)[nH]c2ccc(OC)cc12 (stereo not drawn) | 11.7 | 0.0209 | 0.014
7 | CC(C)c1nc(N2CCN(C(=S)NCc3ccccc3)CC2)c(C#N)c2c1COC(C)(C)C2 | > 100 | 0.183 | 0.112
8 | COc1ccccc1N1CCN(Cc2cc(C(C)C)c(C)cc2O)CC1 | 77.5 | 0.623 | 0.085
9 | Cc1cc(Nc2ccc(Cl)c(Cl)c2)n2nc(C)nc2n1 | > 100 | 0.123 | 0.112
10 | COc1ccc(Cn2c(C)nc3cc(NC(=O)Nc4ccccc4)c(C)nc32)cc1 | > 100 | 0.373 | 0.11
11 | O=[N+]([O-])c1cccc(C(O)CNCc2ccc3c(c2)OCO3)c1 (stereo not drawn) | > 100 | 1.01 | 0.111
12 | C=CCN1Cc2ccc(C(=O)NCc3ccccc3)cc2N=C1c1ccc(F)cc1 | > 12.6 | > 1.25 | < 0.0143
13 | CCCOC(=O)C1=C(C)NC2=C(C(=O)CC(c3ccc(OC)c(OC)c3)C2)C1c1cccc(C)c1 (stereo not drawn) | 31.9 | 0.0913 | 0.0359
14 | COc1ccc(OC)c(C2CC(=O)C3=C(C2)NC(=O)CC3c2ccc(OC)c(OC)c2)c1 (stereo not drawn) | > 100 | 0.616 | 0.118
15 | O=C(NCCCCNc1ccnc2cc(Cl)ccc12)c1ccccc1Cl | > 12 | 0.761 | < 0.0137
16 | COC1=C(Nc2cccc(C(F)(F)F)c2)C(=O)c2ccccc2C1=O | > 100 | 0.263 | 0.114
17 | COc1cc(OC)c(N(C)C(=O)c2cn(C3CCCC3)c(=O)c3c2c2ccccc2n3C)cc1Cl | 47.2 | 0.0977 | 0.0553
18 | CCOC(=O)C1=C(C)NC2=C(C(=O)CC(c3ccc(Cl)cc3)C2)C1c1ccc(Br)cc1 (stereo not drawn) | > 100 | 0.378 | 0.116
19 | CCN(CC)CCNc1ccnc2ccc([N+](=O)[O-])cc12 | > 100 | 0.0898 | 0.115
20 | COc1ccc(NC(=O)C2c3ccccc3C(=O)N(C3CCCC3)C2c2cccs2)cc1Cl (stereo not drawn) | > 100 | 0.128 | 0.107
21 | COC(=O)C1=C(C)NC2=C(C(=O)CC(c3ccccc3Cl)C2)C1c1ccc([N+](=O)[O-])cc1 (stereo not drawn) | > 100 | 0.114 | 0.105
22 | CCCOC(=O)C1=C(C)NC2=C(C(=O)CC(c3ccccc3)C2)C1c1ccc(Cl)cc1Cl (stereo not drawn) | > 100 | 0.484 | 0.109
23 | CCCC(=O)NC(C(=O)N1CCN(C(c2ccccc2)c2ccccc2)CC1)C(C)C (stereo not drawn) | > 10 | 0.387 | 0.0109
24 | COc1cc(C2CC(=O)NC3=C2C(=O)CC(c2ccccc2Cl)C3)ccc1O (stereo not drawn) | > 100 | 0.815 | 0.109
25 | Nc1nonc1-n1nnc(-c2ccccc2)c1C(=O)NN=Cc1ccc(F)c(Br)c1 | > 100 | 0.342 | 0.119
26 | CCNc1nc(NC(C)CC)nc(ON=C(C)C)n1 (stereo not drawn) | > 100 | 0.441 | 0.118

Row | Structure (SMILES) | CC50 [1] [µM] | EC50 (Plasmodium falciparum [2]) [µM] | EC50 (Plasmodium falciparum [3]) [µM]
27 | COc1ccc2c(c1)-c1c(ssc1=S)C(C)(C)N2C(=O)c1ccccc1F | > 100 | 0.652 | 0.118
28 | c1ccc2cc3c(Nc4ccc(N5CCOCC5)cc4)ccnc3cc2c1 | 69.5 | 0.672 | 0.0839
29 | CN1CCN=C1c1ccc(NC(=O)c2ccc(C(=O)Nc3ccc(C4=NCCN4C)cc3)cc2)cc1 | > 10 | 0.0911 | 0.012
30 | C[N+](C)(CCCC(=O)c1ccc(C(=O)CCC[N+](C)(C)Cc2ccccc2Cl)cc1)Cc1ccccc1Cl | > 100 | 0.0213 | 0.113
31 | Cc1ccc(CN2CCc3nc(N4CCCCC4)sc3C2)s1 | > 10 | 0.0141 | 0.0105
32 | CC(=O)N(C1=C(N2CCCCC2)C(=O)c2ccccc2C1=O)c1ccc(F)cc1 | 33.3 | 0.155 | 0.0345
33 | CC12CCC(C(=O)N(CC(O)Cn3c4ccc(Cl)cc4c4cc(Cl)ccc43)C1=O)C2(C)C (stereo not drawn) | > 100 | 0.118 | 0.12
34 | CCOC(=O)C1=C(C)NC2=C(C(=O)CC(c3ccc(OC)c(OC)c3)C2)C1c1ccc(Cl)c(Cl)c1 (stereo not drawn) | > 100 | 0.229 | 0.105
35 | CN(CCCNc1ccnc2cc(Cl)ccc12)C(=O)c1cc(C(F)(F)F)cc(C(F)(F)F)c1 | > 10 | 0.0868 | < 0.0104
36 | CC(C)(C)CC(C)(C)Nc1c(-c2ccccc2OC(=O)c2ccc(Cl)cc2Cl)nc2ccccn12 | > 10 | 0.279 | 0.0103
37 | Cc1ccn2c(NC(C)(C)CC(C)(C)C)c(-c3ccccc3OC(=O)CC(C)C)nc2c1 | > 10 | 0.772 | < 0.0115
38 | Cc1ccc(F)cc1NC(=O)c1cc(Cl)ccc1Nc1ccccc1 | > 100 | 0.191 | 0.115
39 | CC(=O)Nc1ccc(NC2=C(N3CCCCC3)C(=O)c3ccccc3C2=O)cc1 | > 100 | 0.0528 | 0.111
40 | O=C(Cc1cccs1)N1CCOc2c(cc(-c3csc4ccccc34)cc2OCCc2ccccn2)C1 | > 100 | 0.179 | 0.106
41 | Nc1cc(C(=O)Nc2cccc(C3=NCCN3)c2)ccc1C(=O)Nc1cccc(C2=NCCN2)c1 | > 100 | 0.199 | 0.11
42 | OC1=C2C(=Nc3ccccc3SC2c2ccc(Br)cc2)c2ccccc21 (stereo not drawn) | > 48 | 0.337 | 0.0577
43 | O=C1C2=C(Nc3ccccc3SC2c2ccc(OCc3ccccc3)cc2)c2ccccc21 (stereo not drawn) | > 100 | 0.479 | 0.103
44 | COc1ccccc1NC(=S)N1CCN(c2ccc([N+](=O)[O-])cc2)CC1 | > 100 | 0.577 | 0.113
45 | Cc1ccc(C)c(-c2csc(Nc3ccc(C)c(C)c3)n2)c1 | > 100 | 0.493 | 0.116
46 | CCOc1ccccc1C1C(C#N)=C(SCC(=O)Nc2ccc(Cl)cc2)NC(C)=C1C(=O)Nc1ccccc1 (stereo not drawn) | > 100 | 0.352 | 0.107
47 | COc1ccccc1NC(=O)N(Cc1ccccc1)C(C)c1nc2ccccc2c(=O)n1-c1cc(C)ccc1C (stereo not drawn) | > 6.06 | 0.451 | < 0.00688
48 | CC1OC(=O)C(C(C)C)NC(=O)C(C(C)C)OC(=O)C(C(C)C)NC(=O)C(C)OC(=O)C(C(C)C)NC(=O)C(C(C)C)OC(=O)C(C(C)C)NC(=O)C(C)OC(=O)C(C(C)C)NC(=O)C(C(C)C)OC(=O)C(C(C)C)NC1=O (stereo not drawn) | > 10 | 0.0916 | 0.0117
49 | CCN1C(=S)NC2c3cc(C)ccc3OC13CCCC23 (stereo not drawn) | > 100 | 0.164 | 0.111
50 | N#Cc1ccc(NC(=O)CCCC(=O)O)cc1 | > 10 | 2.08 | < 0.0106
51 | CCCCOc1ccc(NC2=C(N3CCCCC3)C(=O)c3ccccc3C2=O)cc1 | 15.5 | 0.00986 | 0.0172
